Data as given in US20230416329A1, “A PEPTIDE WITH DISULFIDE BONDS AND INHIBITORY ACTIVITY AGAINST SERINE PROTEASES, DERIVED HYBRID PEPTIDES THEREOF, AND USES THEREOF” (INSTITUTE OF MATERIA MEDICA , CHINESE ACADEMY OF MEDICAL …, priority 2020, published 2023).

Experiments:
[1] = target: chymotrypsin (Bos taurus, UniProt P00766); assay: in vitro; conditions: isolated enzyme chymotrypsin, pH 7.8, Remaining peak area (%)/chymotrypsin
Method in brief: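 Peptide and 0.05 μg/μL chymotrypsin were preincubated at 37 °C for 5 min, then mixed. Aliquots taken from 1.5 up to 60.0 min were quenched with 10% TFA, and remaining peptide was measured as RP-HPLC peak area.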

[2] = target: T1, trypsin (Bos taurus, UniProt P00760); assay: in vitro; conditions: for remaining at 0.025 h, 60 μM / remaining at 0.05 h, 60 μM / remaining at 0.075 h, 60 μM / remaining at 0.1 h, 60 μM / remaining at 0.15 h, 60 μM / remaining at 0.25 h, 60 μM / remaining at 0.5 h, 60 μM / remaining at 1 h, 60 μM: isolated enzyme trypsin, pH 7.8
T1 sequence (P00760 24-246): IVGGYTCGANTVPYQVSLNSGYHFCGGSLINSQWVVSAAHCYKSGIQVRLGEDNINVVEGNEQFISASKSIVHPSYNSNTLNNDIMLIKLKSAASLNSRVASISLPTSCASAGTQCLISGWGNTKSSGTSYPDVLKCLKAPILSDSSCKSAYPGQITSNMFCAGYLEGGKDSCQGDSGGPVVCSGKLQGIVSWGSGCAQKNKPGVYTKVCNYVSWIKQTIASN
Experimental: FIG. 17. […] At different time point, 25 μL aliquots was taken out, and 10% (v/v) TFA was added to terminate the reaction.
(§1) Mix by centrifugation at 8000 rpm for 30 seconds.
(§2) Arrange a certain volume of 0.05 μg/μL trypsin solution in another sterile EP. Incubate the EP tubes containing peptides and enzymes at 37° C. for 5 min, and separately add 6 μL of trypsin solution to each EP tube containing peptides and mix well. Start timing and extract 25 μL of reaction solution at 1.5, 3.0, 4.5, 6.0 and 9.0 min later, respectively. Add 3.75 μL of 10% TFA to terminate the reaction and mix well by centrifugation at 8000 rpm for 30 seconds.
as §2, with “and” for “and separately”, “9” for “6”, “6.0, 9.0, 15.0, 30.0,” for “6.0”, “60.0” for “9.0”
Referring to the experimental method in Example 5, in vitro stability of salmon Calcitonin analogs with oral administration activity to the enzymatic hydrolysis by trypsin, chymotrypsin and elastase were performed.
Referring to the experimental method in Example 5, in vitro stability of IL-17A inhibitory peptides towards the enzymatic hydrolysis by trypsin, chymotrypsin and elastase were performed.

[3] = target: NEP24.11 (Homo sapiens, UniProt P08473); assay: Tolerance of GLP-1 and its analogues to NEP24.11 (RP-HPLC remaining peak area); format: in vitro ADME; conditions: peptide 30 μM, NEP24.11 1.0 ng/μL, 37° C.; for Remaining peak area (%)/NEP24.11: 0.0 h; for remaining at 0.5 h, 30 μM / remaining at 2 h, 30 μM / remaining at 4 h, 30 μM / remaining at 8 h, 30 μM: isolated NEP24.11 enzyme in buffer; for remaining at 0.5 h, 30 μM: pH 7.4, 0.5 h; for remaining at 2 h, 30 μM: pH 7.4, 2.0 h; for remaining at 4 h, 30 μM: pH 7.4, 4.0 h; for remaining at 8 h, 30 μM: pH 7.4, 8.0 h, read-out: Remaining peak area (%)/NEP24.11
Experimental: as §1
Arrange a certain volume of 0.04 μg/μL NEP24.11 enzyme solution in another sterile EP.

[4] = target: DPP-IV (Homo sapiens, UniProt P27487); assay: Tolerance of GLP-1 and its analogues to DPP-IV (RP-HPLC remaining peak area); format: in vitro ADME; conditions: peptide 25 μM, DPP-IV 0.5 ng/μL, 37° C.; for Remaining peak area (%)/DPP-IV: 0.0 h; for remaining at 0.5 h, 25 μM / remaining at 2 h, 25 μM / remaining at 4 h, 25 μM / remaining at 8 h, 25 μM / remaining at 12 h, 25 μM: isolated DPP-IV enzyme in buffer, pH 8
Experimental: as §1
(2) Arrange a certain volume of 0.005 μg/μL DPP-IV solution in another sterile EP.

Chain of DPP-IV (P27487 whole entry, species assumed): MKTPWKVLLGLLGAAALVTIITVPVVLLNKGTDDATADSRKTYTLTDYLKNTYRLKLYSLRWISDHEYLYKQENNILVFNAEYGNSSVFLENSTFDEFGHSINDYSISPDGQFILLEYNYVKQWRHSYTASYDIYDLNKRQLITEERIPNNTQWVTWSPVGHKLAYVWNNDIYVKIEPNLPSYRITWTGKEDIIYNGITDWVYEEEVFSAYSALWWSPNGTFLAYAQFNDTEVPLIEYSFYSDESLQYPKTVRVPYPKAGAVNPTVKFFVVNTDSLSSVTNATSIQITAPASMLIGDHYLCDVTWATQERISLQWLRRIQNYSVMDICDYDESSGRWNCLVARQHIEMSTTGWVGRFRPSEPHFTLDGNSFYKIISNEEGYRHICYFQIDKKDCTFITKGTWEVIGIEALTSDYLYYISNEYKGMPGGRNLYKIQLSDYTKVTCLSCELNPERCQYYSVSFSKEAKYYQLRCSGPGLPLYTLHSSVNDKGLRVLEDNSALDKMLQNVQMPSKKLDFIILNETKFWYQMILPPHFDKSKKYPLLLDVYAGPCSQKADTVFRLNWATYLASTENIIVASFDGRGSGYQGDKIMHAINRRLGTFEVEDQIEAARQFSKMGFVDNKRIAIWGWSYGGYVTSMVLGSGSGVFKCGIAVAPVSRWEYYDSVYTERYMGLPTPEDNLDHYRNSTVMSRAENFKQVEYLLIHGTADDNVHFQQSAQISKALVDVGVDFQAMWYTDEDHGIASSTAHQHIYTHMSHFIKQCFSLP
Chain of NEP24.11 (P08473 whole entry): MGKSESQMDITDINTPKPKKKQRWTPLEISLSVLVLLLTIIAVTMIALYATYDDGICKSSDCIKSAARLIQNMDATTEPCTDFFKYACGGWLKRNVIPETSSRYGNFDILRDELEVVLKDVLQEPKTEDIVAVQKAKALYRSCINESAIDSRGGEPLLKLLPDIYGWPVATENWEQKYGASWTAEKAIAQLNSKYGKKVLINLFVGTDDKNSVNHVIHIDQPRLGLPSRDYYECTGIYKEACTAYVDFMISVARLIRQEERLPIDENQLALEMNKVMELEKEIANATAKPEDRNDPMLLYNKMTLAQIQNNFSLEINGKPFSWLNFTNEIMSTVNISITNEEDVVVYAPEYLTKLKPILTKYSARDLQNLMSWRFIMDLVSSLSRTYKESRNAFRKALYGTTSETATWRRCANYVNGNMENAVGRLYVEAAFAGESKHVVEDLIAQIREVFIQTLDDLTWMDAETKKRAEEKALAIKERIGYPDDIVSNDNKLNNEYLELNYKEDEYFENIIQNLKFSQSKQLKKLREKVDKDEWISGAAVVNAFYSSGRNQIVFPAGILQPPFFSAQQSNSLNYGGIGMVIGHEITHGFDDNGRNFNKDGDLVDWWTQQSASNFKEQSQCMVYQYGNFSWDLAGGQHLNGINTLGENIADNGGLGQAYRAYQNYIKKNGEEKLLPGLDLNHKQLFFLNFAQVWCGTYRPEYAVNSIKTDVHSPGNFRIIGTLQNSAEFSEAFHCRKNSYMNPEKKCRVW

| remaining at 0.025 h, 60 μM [1] | remaining at 0.05 h, 60 μM [1] | remaining at 0.075 h, 60 μM [1] | remaining at 0.1 h, 60 μM [1] | remaining at 0.15 h, 60 μM [1] | remaining at 0.025 h, 60 μM [2] | remaining at 0.05 h, 60 μM [2] | remaining at 0.075 h, 60 μM [2] | remaining at 0.1 h, 60 μM [2] | remaining at 0.15 h, 60 μM [2] | Structure (SMILES) | Remaining peak area (%)/NEP24.11 [3] | remaining at 0.5 h, 30 μM [3] | remaining at 2 h, 30 μM [3] | remaining at 4 h, 30 μM [3] | remaining at 8 h, 30 μM [3] | Remaining peak area (%)/DPP-IV [4] | remaining at 0.5 h, 25 μM [4] | remaining at 2 h, 25 μM [4] | remaining at 4 h, 25 μM [4] | remaining at 8 h, 25 μM [4] | other results |
| --- | --- | --- | --- | --- | --- | --- | --- | --- | --- | --- | --- | --- | --- | --- | --- | --- | --- | --- | --- | --- | --- |
| 69 ± 4.4% | 58.1 ± 4.9% | 53.2% | 23.1 ± 0.9% | 23.5 ± 0.2% | 90.9 ± 3.6% | 96.4 ± 4.9% | 91.4 ± 3.2% | 93.2 ± 7% | 88.8 ± 4% | CC[C@H](C)[C@H](NC(=O)[C@H](Cc1ccccc1)NC(=O)[C@H](CCC(=O)O)NC(=O)[C@H](CCCCN)NC(=O)[C@H](C)NC(=O)[C@H](C)NC(=O)[C@H](CCC(N)=O)NC(=O)CNC(=O)[C@H](CCC(=O)O)NC(=O)[C@H](CC(C)C)NC(=O)[C@H](Cc1ccc(O)cc1)NC(=O)[C@H](CO)NC(=O)[C@H](CO)NC(=O)[C@@H](NC(=O)[C@H](CC(=O)O)NC(=O)[C@H](CO)NC(=O)[C@@H](NC(=O)[C@H](Cc1ccccc1)NC(=O)[C@@H](NC(=O)CNC(=O)[C@H](CCC(=O)O)NC(=O)[C@H](C)NC(=O)[C@H](Cc1c[nH]cn1)NC(=O)CNC(=O)CNC(=O)[C@H](CCCNC(=N)N)NC(=O)[C@H](CO)NC(=O)[C@H](Cc1ccccc1)NC(=O)[C@H](CCCNC(=N)N)NC(=O)[C@H](CCC(N)=O)NC(=O)CNC(=O)CNC(=O)[C@@H]1CCCN1C(=O)[C@H](Cc1ccccc1)NC(=O)[C@@H]1CSSC[C@H](NC(=O)[C@H](CCCNC(=N)N)NC(=O)CN)C(=O)N[C@@H]([C@@H](C)O)C(=O)N[C@@H](CCCCN)C(=O)N[C@@H](CO)C(=O)N[C@@H]([C@@H](C)CC)C(=O)N2CCC[C@H]2C(=O)N2CCC[C@H]2C(=O)N[C@@H]([C@@H](C)CC)C(=O)N1)[C@@H](C)O)[C@@H](C)O)C(C)C)C(=O)N[C@@H](C)C(=O)N[C@@H](Cc1c[nH]c2ccccc12)C(=O)N[C@@H](CC(C)C)C(=O)N[C@H](C(=O)N[C@@H](CCCCN)C(=O)NCC(=O)N[C@@H](CCCNC(=N)N)C(=O)NCC(=O)NCC(=O)N[C@@H](CCCCN)C(=O)O)C(C)C [BT1-N-GLP-1] | 100.0 ± 0.0% | 90.8 ± 7.1% | 78.8 ± 8% | 77.8 ± 4.3% | 71.7 ± 4.9% | 100.0 ± 0.0% | 88.9 ± 0.8% | 87 ± 2.7% | 85.8 ± 1.8% | 87.3 ± 2% | remaining at 0.25 h, 60 μM [2]: 90 ± 4.4%; remaining at 0.5 h, 60 μM [2]: 91 ± 6.6%; remaining at 1 h, 60 μM [2]: 88.9 ± 3%; remaining at 12 h, 25 μM [4]: 84.8 ± 1.6% |
| 77.1 ± 1.8% | 57.7 ± 2% | 50.4 ± 3.2% | 41.2 ± 3.1% | 26 ± 2.9% | 90.8 ± 0.5% | 90.4 ± 2% | 91 ± 2.1% | 91.1 ± 3% | 90.9 ± 3.1% | CC[C@H](C)[C@H](NC(=O)[C@H](Cc1ccccc1)NC(=O)[C@H](CCC(=O)O)NC(=O)[C@H](CCCCN)NC(=O)[C@H](C)NC(=O)[C@H](C)NC(=O)[C@H](CCC(N)=O)NC(=O)CNC(=O)[C@H](CCC(=O)O)NC(=O)[C@H](CC(C)C)NC(=O)[C@H](Cc1ccc(O)cc1)NC(=O)[C@H](CO)NC(=O)[C@H](CO)NC(=O)[C@@H](NC(=O)[C@H](CC(=O)O)NC(=O)[C@H](CO)NC(=O)[C@@H](NC(=O)[C@H](Cc1ccccc1)NC(=O)[C@@H](NC(=O)CNC(=O)[C@H](CCC(=O)O)NC(=O)[C@H](C)NC(=O)[C@H](Cc1c[nH]cn1)NC(=O)CNC(=O)CNC(=O)[C@H](CCCNC(=N)N)NC(=O)[C@H](CO)NC(=O)[C@H](Cc1ccccc1)NC(=O)[C@H](CCCNC(=N)N)NC(=O)[C@H](CCC(N)=O)NC(=O)CNC(=O)CNC(=O)[C@H](Cc1ccccc1)NC(=O)[C@@H]1CSSC[C@H](N)C(=O)NCC(=O)N[C@@H](CCCNC(=N)N)C(=O)N[C@@H](C)C(=O)N[C@@H]([C@@H](C)O)C(=O)N[C@@H](CCCCN)C(=O)N[C@@H](CO)C(=O)N[C@@H]([C@@H](C)CC)C(=O)N2CCC[C@H]2C(=O)N2CCC[C@H]2C(=O)N[C@@H]([C@@H](C)CC)C(=O)N1)[C@@H](C)O)[C@@H](C)O)C(C)C)C(=O)N[C@@H](C)C(=O)N[C@@H](Cc1c[nH]c2ccccc12)C(=O)N[C@@H](CC(C)C)C(=O)N[C@H](C(=O)N[C@@H](CCCCN)C(=O)NCC(=O)N[C@@H](CCCNC(=N)N)C(=O)NCC(=O)NCC(=O)N[C@@H](CCCCN)C(=O)O)C(C)C [BT9-N-GLP-1] | 100.0 ± 0.0% | 76.4 ± 1.1% | 63.5 ± 1.9% | 47 ± 4.3% | 41.8 ± 2.7% | 100.0 ± 0.0% | 92.5 ± 1.5% | 88 ± 1.8% | 79.4 ± 2.2% | 76.1 ± 1.4% | remaining at 0.25 h, 60 μM [2]: 86.6 ± 3.5%; remaining at 0.5 h, 60 μM [2]: 86.5 ± 3.5%; remaining at 1 h, 60 μM [2]: 74.4 ± 2.6%; remaining at 12 h, 25 μM [4]: 71.2 ± 2.1% |
| 97 ± 5.7% | 89.8 ± 0.9% | 85.1 ± 4.4% | 84.3 ± 2% | 78.2 ± 2.1% | 68.3 ± 5.9% | 44.9 ± 3.5% | 21.2 ± 1.1% | 0% | 0% | CC[C@H](C)[C@H](NC(=O)[C@H](Cc1ccccc1)NC(=O)[C@H](CCC(=O)O)NC(=O)[C@H](CCCCN)NC(=O)[C@H](C)NC(=O)[C@H](C)NC(=O)[C@H](CCC(N)=O)NC(=O)CNC(=O)[C@H](CCC(=O)O)NC(=O)[C@H](CC(C)C)NC(=O)[C@H](Cc1ccc(O)cc1)NC(=O)[C@H](CO)NC(=O)[C@H](CO)NC(=O)[C@@H](NC(=O)[C@H](CC(=O)O)NC(=O)[C@H](CO)NC(=O)[C@@H](NC(=O)[C@H](Cc1ccccc1)NC(=O)[C@@H](NC(=O)CNC(=O)[C@H](CCC(=O)O)NC(=O)[C@H](C)NC(=O)[C@H](Cc1c[nH]cn1)NC(=O)CNC(=O)CNC(=O)[C@@H](NC(=O)[C@@H]1CCCN1C(=O)[C@@H](NC(=O)CNC(=O)CNC(=O)[C@H](CCCNC(=N)N)NC(=O)[C@H](CO)NC(=O)[C@H](Cc1ccccc1)NC(=O)[C@H](CCCNC(=N)N)NC(=O)[C@H](CCC(N)=O)NC(=O)CNC(=O)CNC(=O)[C@@H]1CSSC[C@H](N)C(=O)N2CCC[C@H]2C(=O)N[C@@H](CCCCN)C(=O)N[C@@H]([C@@H](C)CC)C(=O)N[C@@H](CC(C)C)C(=O)N[C@@H](CCC(N)=O)C(=O)N[C@@H](CCCNC(=N)N)C(=O)N1)[C@@H](C)CC)[C@@H](C)CC)[C@@H](C)O)[C@@H](C)O)C(C)C)C(=O)N[C@@H](C)C(=O)N[C@@H](Cc1c[nH]c2ccccc12)C(=O)N[C@@H](CC(C)C)C(=O)N[C@H](C(=O)N[C@@H](CCCCN)C(=O)NCC(=O)N[C@@H](CCCNC(=N)N)C(=O)NCC(=O)NCC(=O)N[C@@H](CCCCN)C(=O)O)C(C)C [DNT-GLP-1] | 100.0 ± 0.0% | 82.2 ± 1.3% | 79.1 ± 1.7% | 77.9 ± 4.2% | 67.8 ± 4.7% | 100.0 ± 0.0% | 108 ± 9.3% | 108 ± 1.7% | 105 ± 2.3% | 105 ± 1.7% | stability towards trypsin hydrolysis (in words) [2]: completely degraded; remaining at 12 h, 25 μM [4]: 97.4 ± 2.1% |
